Results reported in patent publication US11738031B2, “Compositions and methods for preventing or treating muscle conditions” (The Board of Trustees of the Leland Stanford Junior …, priority 2017, dated 2023).

Experiments:
MuSCs = test: Clonal MuSC proliferation by time-lapse microscopy (38 h); type: cell-based, mouse; conditions: PGE2 24 hr
Protocol: We assayed clonal muscle stem cell proliferation by time-lapse microscopy as previously described (26, 27). […] Cells were then trypsinized and reseeded at a density of 500 cells per cm^2 surface area in hydrogel microwells with 600 μm diameter. For time-lapse microscopy we monitored cell proliferation for those wells with single cells for 38 h days after seeding and recorded images every 3 min at 10× magnification using a PALM/AxioObserver Z1 system (Carl Zeiss MicroImaging) with a custom environmental control chamber and motorized stage. We analyzed time-lapse image sequences using the Baxter Algorithms for Cell Tracking and Lineage Reconstruction to identify and track single cells and generate lineage trees (26-28, 51, 52). Viable and dead cells were distinguished in time-lapse sequences based on phase-contrast boundary and motility maintenance or loss, respectively. […] The data analysis was blinded. The researchers performing the imaging acquisition and scoring were unaware of the treatment condition given to sample groups analyzed. Clonal muscle stem cell proliferation and fate analyses: […] Cells were then trypsinized and reseeded at a density of 500 cells per cm^2 surface area in hydrogel microwells with 600 μm diameter. For time-lapse microscopy we monitored cell proliferation for those wells with single cells for 38 h days after seeding and recorded images every 3 min at 10× magnification using a PALM/AxioObserver Z1 system (Carl Zeiss MicroImaging) with a custom environmental control chamber and motorized stage. We analyzed time-lapse image sequences using the Baxter Algorithms for Cell Tracking and Lineage Reconstruction to identify and track single cells and generate lineage trees (26-28, 51, 52). Viable and dead cells were distinguished in time-lapse sequences based on phase-contrast boundary and motility maintenance or loss, respectively. […] The data analysis was blinded. The researchers performing the imaging acquisition and scoring were unaware of the treatment condition given to sample groups analyzed.

Nurr1 = Nurr1 expression in MuSCs (qRT-PCR, flow cytometry); type: cell-based, mouse; conditions: 24 hr PGE2 treatment in culture
Protocol: We analyzed NURR1 levels by flow cytometry using myogenic progenitors after a 24 hr treatment of vehicle (DMSO) or PGE2 (10 ng/ml), or from MuSCs transfected with shSCR or shNurr1 (see Knockdown assays section). We collected cells by incubation with 0.5% trypsin in PBS for 2 min at 37° C. We fixed the cells using 1.6% paraformaldehyde in PBS and then permeabilized them in ice-cold methanol. We then blocked them in staining buffer (0.5% BSA in PBS) for 30 min at room temperature and stained them with a Mouse monoclonal anti-Nurr1 (Abcam, catalog #ab41917, 1:75) primary antibody or anti-mouse IgG control (Jackson ImmunoResearch Laboratories). […] We analyzed the cells on a FACS LSR II cytometer using FACSDiva software (BD Biosciences) in the Stanford Shared FACS Facility, purchased using an NIH S10 Shared Instrument Grant (S10RR027431-01).
We isolated RNA from MuSCs using the RNeasy Micro Kit (Qiagen). […] To quantify relative transcript levels, we used 2^ΔΔCt to compare treated and untreated samples and expressed the results relative to Gapdh. […] TaqMan Assays (Applied Biosystems) were used to quantify Pax7, Myogenin, Nurr1, Ptger3 and Ptger4 in samples according to the manufacturer instructions with the TaqMan Universal PCR Master Mix reagent kit (Applied Biosystems). […]

CCCCC[C@H](O)/C=C/[C@H]1[C@H](O)CC(=O)[C@@H]1C/C=C\CCCC(=O)O [PGE2, prostaglandin E2]
cell sizes of tracked MuSCs (MuSCs): increase in the incidence of larger cell sizes
total cells at the end of the 38 h timespan vs vehicle (MuSCs): almost twice the number of total cells
entry into mitosis post-plating (MuSCs; 38 h tracking): entry into mitosis is accelerated
cumulative cell divisions and cell numbers of MuSC clones (MuSCs; 38 h tracking, young MuSCs): marked increase in cumulative cell divisions and cell numbers
Nurr1 mRNA and protein expression (Nurr1): increased Nurr1 mRNA and protein expression
